The values below are quoted from earlier work in patent US20260115234A1, “PRODUCTION & SECRETION OF AUXIN-LIKE MOLECULES IN BACTERIA” (SNIPR Biome ApS, priority 2023, published 2026).

Values after ≈ are worked out from the molar mass of the structure shown.

For the first series, the system named is RFP reporter in strain TG1. Conditions: relative fluorescence of plasmids in strain TG1 grown in LB media to saturation.
Consider “BBa_J23117: Anderson Promoter Collection promoter, Seq ID No: 22 (DNA TTGACAGCTAGCTCAGTCCTAGGGATTGTGCTAGC; expressed or natural sequence)”, for which the “Measured Strength (Anderson Score)” value is on record as 0.06.

As to “BBa_J23107: Anderson Promoter Collection promoter, Seq ID No: 12 (DNA TTTACGGCTAGCTCAGCCCTAGGTATTATGCTAGC; expressed or natural sequence)”, the “Measured Strength (Anderson Score)” value is on record as 0.36.

With “BBa_J23114: Anderson Promoter Collection promoter, Seq ID No: 19 (DNA TTTATGGCTAGCTCAGTCCTAGGTACAATGCTAGC; expressed or natural sequence)”, the “Measured Strength (Anderson Score)” value is listed as 0.1.

Turning to “BBa_J23104: Anderson Promoter Collection promoter, Seq ID No: 9 (DNA TTGACAGCTAGCTCAGTCCTAGGTATTGTGCTAGC; expressed or natural sequence)”, the “Measured Strength (Anderson Score)” value was 0.72.

Regarding “BBa_J23101: Anderson Promoter Collection promoter, Seq ID No: 6 (DNA TTTACAGCTAGCTCAGTCCTAGGTATTATGCTAGC; expressed or natural sequence)”, the “Measured Strength (Anderson Score)” value is recorded as 0.7.

With “BBa_J23112: Anderson Promoter Collection promoter, Seq ID No: 17 (DNA CTGATAGCTAGCTCAGTCCTAGGGATTATGCTAGC; expressed or natural sequence)”, the “Measured Strength (Anderson Score)” value is 0.

For “BBa_J23116: Anderson Promoter Collection promoter, Seq ID No: 21 (DNA TTGACAGCTAGCTCAGTCCTAGGGACTATGCTAGC; expressed or natural sequence)”, the “Measured Strength (Anderson Score)” value is 0.16.

For “BBa_J23109: Anderson Promoter Collection promoter, Seq ID No: 14 (DNA TTTACAGCTAGCTCAGTCCTAGGGACTGTGCTAGC; expressed or natural sequence)”, the “Measured Strength (Anderson Score)” value is reported as 0.04.

In the case of “BBa_J23118: Anderson Promoter Collection promoter, Seq ID No: 23 (DNA TTGACGGCTAGCTCAGTCCTAGGTATTGTGCTAGC; expressed or natural sequence)”, the “Measured Strength (Anderson Score)” value is 0.56.

In the case of “BBa_J23100: Anderson Promoter Collection constitutive promoter, Seq ID No: 5 (DNA TTGACGGCTAGCTCAGTCCTAGGTACAGTGCTAGC; expressed or natural sequence)”, the “Measured Strength (Anderson Score)” value is reported as 1.

With “BBa_J23108: Anderson Promoter Collection promoter, Seq ID No: 13 (DNA CTGACAGCTAGCTCAGTCCTAGGTATAATGCTAGC; expressed or natural sequence)”, the “Measured Strength (Anderson Score)” value was 0.51.

Turning to “BBa_J23102: Anderson Promoter Collection promoter, Seq ID No: 7 (DNA TTGACAGCTAGCTCAGTCCTAGGTACTGTGCTAGC; expressed or natural sequence)”, the “Measured Strength (Anderson Score)” value is 0.86.

Consider “BBa_J23110: Anderson Promoter Collection promoter, Seq ID No: 15 (DNA TTTACGGCTAGCTCAGTCCTAGGTACAATGCTAGC; expressed or natural sequence)”, for which the “Measured Strength (Anderson Score)” value is listed as 0.33.

As for “BBa_J23111: Anderson Promoter Collection promoter, Seq ID No: 16 (DNA TTGACGGCTAGCTCAGTCCTAGGTATAGTGCTAGC; expressed or natural sequence)”, the “Measured Strength (Anderson Score)” value is on record as 0.58.

“BBa_J23103: Anderson Promoter Collection promoter, Seq ID No: 8 (DNA CTGATAGCTAGCTCAGTCCTAGGGATTATGCTAGC; expressed or natural sequence)”: the “Measured Strength (Anderson Score)” value is on record as 0.01.

As for “BBa_J23106: Anderson Promoter Collection promoter, Seq ID No: 11 (DNA TTTACGGCTAGCTCAGTCCTAGGTATAGTGCTAGC; expressed or natural sequence)”, the “Measured Strength (Anderson Score)” value is 0.47.

Take “BBa_J23115: Anderson Promoter Collection promoter, Seq ID No: 20 (DNA TTTATAGCTAGCTCAGCCCTTGGTACAATGCTAGC; expressed or natural sequence)”: the “Measured Strength (Anderson Score)” value is on record as 0.15.

Regarding “BBa_J23113: Anderson Promoter Collection promoter, Seq ID No: 18 (DNA CTGATGGCTAGCTCAGTCCTAGGGATTATGCTAGC; expressed or natural sequence)”, the “Measured Strength (Anderson Score)” value is on record as 0.01.

As for “BBa_J23105: Anderson Promoter Collection promoter, Seq ID No: 10 (DNA TTTACGGCTAGCTCAGTCCTAGGTACTATGCTAGC; expressed or natural sequence)”, the “Measured Strength (Anderson Score)” value was 0.24.

A further series deals with A549 human lung cancer cells.
Details: not given
Turning to `O=C(O)c1c[nH]c2ccccc12` [ICA, indole-3-carboxylic acid], the EC50 cytotoxicity was 4.6 mg/L (≈ 28.5 µM).

A further series deals with MCF-7 human breast cancer cells.
Details: not given
For `O=C(O)c1c[nH]c2ccccc12` [ICA, indole-3-carboxylic acid], the EC50 cytotoxicity was 12.9 mg/L (≈ 80 µM).

The next series deals with HIV replication in infected H9 lymphocytes.
Details: not given
Regarding `O=C(O)c1c[nH]c2ccccc12` [ICA, indole-3-carboxylic acid], the “IC50 inhibition of HIV replication” value was 16.4 mg/L.
